The text below walks through data of patent publication US12624018B1, “Inhibitors of RIPK2 and medical uses thereof” (Odyssey Therapeutics, Inc., priority 2022, dated 2026).

pIC50: −log10 of the molar value.

For the assay, the target named is T1, RIPK2 enzyme (Homo sapiens, UniProt O43353).
T1 construct: purchased Carna 09-128
T1 sequence (O43353 1-299 limits assumed): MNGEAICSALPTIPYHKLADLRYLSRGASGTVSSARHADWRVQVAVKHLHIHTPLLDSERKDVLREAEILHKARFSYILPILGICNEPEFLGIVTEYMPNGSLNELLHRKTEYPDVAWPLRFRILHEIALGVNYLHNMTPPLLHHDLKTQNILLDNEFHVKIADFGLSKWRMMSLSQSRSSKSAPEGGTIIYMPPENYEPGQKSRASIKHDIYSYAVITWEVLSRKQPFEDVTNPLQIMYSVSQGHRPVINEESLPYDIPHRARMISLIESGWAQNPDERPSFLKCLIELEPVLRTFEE
Nature of the assay: RIPK2 inhibition (ADP-Glo Kinase Assay). Type of assay: biochemical. To be noted: RIPK2 5 nM, ATP 150 μM, MBP substrate, read-out: RIPK2 IC50. Summed up: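 Human RIPK2 (5 nM) preincubated with compound 30 min at room temperature in 50 mM HEPES pH 7.5, 10 mM MgCl2, 2 mM DTT, 1 mM EGTA, 0.01% Brij-35, 0.05% BSA; native swine MBP as substrate. ADP formed quantified by ADP-Glo luminescence; percent inhibition relative to DMSO and no-enzyme controls.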
Background: ADP-Glo first removes unused ATP, then detects ADP through luciferase.
The term pIC50 denotes −log10 of the IC50, conventionally taken in molar units. Turning to `Cc1c(Oc2ccnc3ccc(S(=O)(=O)N4CC(F)C4)cc23)ccc(CC(=O)Nc2cnn(C(C)(C)C)c2)c1F` [Compound 272, N-(1-(tert-butyl)-1H-pyrazol-4-yl)-2-(2-fluoro-4-((6-((3-fluoroazetidin-1-yl)sulfonyl)quinolin-4-yl)oxy)-3-methylphenyl)acetamide], the pIC50 was over 8.60.
Turning to `Cc1c(Oc2ccnc3ccc(S(=O)(=O)N4CC(C#N)C4)cc23)ccc(CC(=O)Nc2cnn(C(C)(C)C)c2)c1F` [Compound 273, N-(1-(tert-butyl)-1H-pyrazol-4-yl)-2-(4-((6-((3-cyanoazetidin-1-yl)sulfonyl)quinolin-4-yl)oxy)-2-fluoro-3-methylphenyl)acetamide], the pIC50 was over 8.60.
The result for `Cc1c(Oc2ccnc3ccc(S(=O)(=O)N4CCOCC4)cc23)ccc(CC(=O)Nc2cnn(C(C)(C)C)c2)c1F` [Compound 274, N-(1-(tert-butyl)-1H-pyrazol-4-yl)-2-(2-fluoro-3-methyl-4-((6-(morpholinosulfonyl)quinolin-4-yl)oxy)phenyl)acetamide] reads over 8.60; that for `Cc1c(Oc2ccnc3ccc(S(=O)(=O)N(C)CCO)cc23)ccc(CC(=O)Nc2cnn(C(C)(C)C)c2)c1F` [Compound 275, N-(1-(tert-butyl)-1H-pyrazol-4-yl)-2-(2-fluoro-4-((6-(N-(2-hydroxyethyl)-N-methylsulfamoyl)quinolin-4-yl)oxy)-3-methylphenyl)acetamide], over 8.60; that for `COCCN(C)S(=O)(=O)c1ccc2nccc(Oc3ccc(CC(=O)Nc4cnn(C(C)(C)C)c4)c(F)c3C)c2c1` [Compound 276, N-(1-(tert-butyl)-1H-pyrazol-4-yl)-2-(2-fluoro-4-((6-(N-(2-methoxyethyl)-N-methylsulfamoyl)quinolin-4-yl)oxy)-3-methylphenyl)acetamide], over 8.60.
The result for `Cc1c(Oc2ccnc3ccc(NS(C)(=O)=O)cc23)ccc(CC(=O)Nc2cnn(C(C)(C)C)c2)c1F` [Compound 277, N-(1-(tert-butyl)-1H-pyrazol-4-yl)-2-(2-fluoro-3-methyl-4-((6-(methylsulfonamido)quinolin-4-yl)oxy)phenyl) acetamide] reads over 8.60; that for `Cc1c(Oc2ccnc3ccc(N(C)S(C)(=O)=O)cc23)ccc(CC(=O)Nc2cnn(C(C)(C)C)c2)c1F` [Compound 278, N-(1-(tert-butyl)-1H-pyrazol-4-yl)-2-(2-fluoro-3-methyl-4-((6-(N-methylmethyl-sulfonamido)quinolin-4-yl)oxy)phenyl) acetamide], over 8.60.
For `Cc1c(Oc2ccnc3ccc(N4CCCS4(=O)=O)cc23)ccc(CC(=O)Nc2cnn(C(C)(C)C)c2)c1F` [Compound 279, N-(1-(tert-butyl)-1H-pyrazol-4-yl)-2-(4-((6-(1,1-dioxidoisothiazolidin-2-yl)quinolin-4-yl)oxy)-2-fluoro-3-methylphenyl) acetamide], the pIC50 is over 8.60.
As for `Cc1cc(CC(=O)Nc2cnn(C(C)(C)C)c2)ccc1Oc1ccnc2ccc(S(=O)(=O)C3CCC3)cc12` [Compound 280, N-(1-(tert-butyl)-1H-pyrazol-4-yl)-2-(4-((6-(cyclobutylsulfonyl)quinolin-4-yl)oxy)-3-methylphenyl)acetamide], the pIC50 was over 8.60.
In the case of `Cc1cc(CC(=O)Nc2cnn(C(C)(C)C)c2)ccc1Oc1ccnc2ccc(S(=O)(=O)C3CC(O)C3)cc12` (stereo not shown) [Compound 281, N-(1-(tert-butyl)-1H-pyrazol-4-yl)-2-(4-((6-((-3-hydroxycyclobutyl)sulfonyl)quinolin-4-yl)oxy)-3-methylphenyl)acetamide], the pIC50 is over 8.60.
Consider `Cc1c(Oc2ccnc3ccc(S(=O)(=O)C4CCC4)cc23)ccc(CC(=O)Nc2cnn(C(C)(C)C)c2)c1F` [Compound 284, N-(1-(tert-butyl)-1H-pyrazol-4-yl)-2-(4-((6-(cyclobutylsulfonyl)quinolin-4-yl)oxy)-2-fluoro-3-methylphenyl)acetamide], for which the pIC50 was over 8.60.
The result for `CC(C)(C)n1cc(NC(=O)Cc2ncc(Oc3ncnc4ccc(O[C@H]5C[C@H]6CC[C@@H](C5)N6)cc34)cc2F)cn1` [Compound 289, 2-(5-((6-(((1R,3r,5S)-8-azabicyclo[3.2.1]octan-3-yl)oxy)quinazolin-4-yl)oxy)-3-fluoropyridin-2-yl)-N-(1-(tert-butyl)-1H-pyrazol-4-yl)acetamide] reads 8.37.
For the compound `Cc1cc(CC(=O)Nc2cnn(C(C)(C)C)c2)ccc1Oc1ccnc2ccc(N3CCCC3=O)cc12` [Compound 290, N-(1-(tert-butyl)-1H-pyrazol-4-yl)-2-(3-methyl-4-((6-(2-oxopyrrolidin-1-yl)quinolin-4-yl)oxy)phenyl) acetamide], the pIC50 was over 8.60.
`Cc1cc(CC(=O)Nc2cnn(C(C)(C)C)c2)ccc1Oc1ccnc2ccc(N3CCOC3=O)cc12` [Compound 293, N-(1-(tert-butyl)-1H-pyrazol-4-yl)-2-(3-methyl-4-((6-(2-oxooxazolidin-3-yl)quinolin-4-yl)oxy)phenyl) acetamide]: the negative logarithm of the IC50 (pIC50) was over 8.60.
The result for `Cc1cc(CC(=O)Nc2cnn(C(C)(C)C)c2)ccc1Oc1ccnc2ccc(N3CCOCC3=O)cc12` [Compound 294, N-(1-(tert-butyl)-1H-pyrazol-4-yl)-2-(3-methyl-4-((6-(3-oxomorpholino)quinolin-4-yl)oxy)phenyl) acetamide] reads over 8.60; that for `Cc1c(Oc2ccnc3ccc(N4CCCC4=O)cc23)ccc(CC(=O)Nc2cnn(C(C)(C)C)c2)c1F` [Compound 295, N-(1-(tert-butyl)-1H-pyrazol-4-yl)-2-(2-fluoro-3-methyl-4-((6-(2-oxopyrrolidin-1-yl)quinolin-4-yl)oxy)phenyl) acetamide], over 8.60.
For `Cc1c(Oc2ccnc3ccc(N4CCOC4=O)cc23)ccc(CC(=O)Nc2cnn(C(C)(C)C)c2)c1F` [Compound 298, N-(1-(tert-butyl)-1H-pyrazol-4-yl)-2-(2-fluoro-3-methyl-4-((6-(2-oxooxazolidin-3-yl)quinolin-4-yl)oxy)phenyl) acetamide], the pIC50 was over 8.60.
On to `Cc1c(Oc2ccnc3ccc(P(C)(C)=O)cc23)ccc(CC(=O)Nc2cnn(C(C)(C)C)c2)c1F` [Compound 300, N-(1-(tert-butyl)-1H-pyrazol-4-yl)-2-(4-((6-(dimethylphosphoryl)quinolin-4-yl)oxy)-2-fluoro-3-methylphenyl) acetamide], for which the pIC50 is over 8.60.
The result for `CCP(=O)(CC)c1ccc2nccc(Oc3ccc(CC(=O)Nc4cnn(C(C)(C)C)c4)c(F)c3C)c2c1` [Compound 301, N-(1-(tert-butyl)-1H-pyrazol-4-yl)-2-(4-((6-(diethylphosphoryl)quinolin-4-yl)oxy)-2-fluoro-3-methylphenyl) acetamide] reads over 8.60; that for `Cc1c(Oc2ccnc3ccc(C(C)(C)O)cc23)ccc(CC(=O)Nc2cnn(C(C)(C)C)c2)c1F` [Compound 302, N-(1-(tert-butyl)-1H-pyrazol-4-yl)-2-(2-fluoro-4-((6-(2-hydroxypropan-2-yl)quinolin-4-yl)oxy)-3-methylphenyl)acetamide], over 8.60; that for `COC(C)(C)c1ccc2nccc(Oc3ccc(CC(=O)Nc4cnn(C(C)(C)C)c4)c(F)c3C)c2c1` [Compound 303, N-(1-(tert-butyl)-1H-pyrazol-4-yl)-2-(2-fluoro-4-((6-(2-methoxypropan-2-yl)quinolin-4-yl)oxy)-3-methylphenyl)acetamide], over 8.60.
In the case of `Cc1cc(CC(=O)Nc2cnn(C(C)(C)C)c2)ccc1Oc1ccnc2ccc(OC3CCC(=O)NC3)cc12` (stereo not shown) [Compound 307, N-(1-(tert-butyl)-1H-pyrazol-4-yl)-2-(3-methyl-4-((6-((6-oxopiperidin-3-yl)oxy)quinolin-4-yl)oxy)phenyl) acetamide], the negative logarithm of the IC50 (pIC50) is over 8.60.
Turning to `Cc1cc(CC(=O)Nc2cnn(C(C)(C)C)c2)ccc1Oc1ccnc2ccc(OC3CCCNC3=O)cc12` (stereo not shown) [Compound 308, N-(1-(tert-butyl)-1H-pyrazol-4-yl)-2-(3-methyl-4-((6-((2-oxopiperidin-3-yl)oxy)quinolin-4-yl)oxy)phenyl) acetamide], the pIC50 is over 8.60.
The value for `Cc1cc(CC(=O)Nc2cnn(C(C)(C)C)c2)ccc1Oc1ccnc2ccc(S(=O)(=O)CC(C)(C)O)cc12` [Compound 309, N-(1-(tert-butyl)-1H-pyrazol-4-yl)-2-(4-((6-((2-hydroxy-2-methylpropyl)sulfonyl)quinolin-4-yl)oxy)-3-methylphenyl)acetamide] was over 8.60.
`Cc1cc(CC(=O)Nc2cnn(C(C)(C)C)c2)ccc1Oc1ccnc2ccc(S(=O)(=O)C(C)(C)CO)cc12` [Compound 310, N-(1-(tert-butyl)-1H-pyrazol-4-yl)-2-(4-((6-((1-hydroxy-2-methylpropan-2-yl)sulfonyl)quinolin-4-yl)oxy)-3-methylphenyl)acetamide]: the pIC50 was over 8.60.
The result for `Cc1cc(CC(=O)Nc2cnn(C(C)(C)C)c2)ccc1Oc1ccnc2ccc(S(=O)(=O)C3CCNCC3)cc12` [Compound 311, N-(1-(tert-butyl)-1H-pyrazol-4-yl)-2-(3-methyl-4-((6-(piperidin-4-ylsulfonyl)quinolin-4-yl)oxy)phenyl)acetamide] reads over 8.60; that for `Cc1c(Oc2ccnc3ccc(S(=O)(=O)C4CCNCC4)cc23)ccc(CC(=O)Nc2cnn(C(C)(C)C)c2)c1F` [Compound 312, N-(1-(tert-butyl)-1H-pyrazol-4-yl)-2-(2-fluoro-3-methyl-4-((6-(piperidin-4-ylsulfonyl)quinolin-4-yl)oxy)phenyl)acetamide], over 8.60; that for `Cc1cc(CC(=O)Nc2cnn(C(C)(C)C)c2)c(F)cc1Oc1ccnc2ccc(S(=O)(=O)C3CCNCC3)cc12` [Compound 313, N-(1-(tert-butyl)-1H-pyrazol-4-yl)-2-(2-fluoro-5-methyl-4-((6-(piperidin-4-ylsulfonyl)quinolin-4-yl)oxy)phenyl)acetamide], over 8.60.
